One compound from BindingDB's records for doi:10.1021/acs.jmedchem.1c01681 (Second Military Medical University, 2021) can be followed below.

This assay in a line: Inhibition of SARS-CoV-2 spike glycoprotein expressed in HEK293T cells transfected with pAAV-CAG-HnCovS-RFP assessed as inhibition of membrane fusion to Huh-7 cells expressing hACE2 measured after 4 hrs by cell-cell fusion based fluorescence assay.

What is called EC50 is the concentration needed to bring the measured effect to its halfway point. Take `CC[C@H](C)[C@H](NC(=O)CNC(=O)[C@H](CO)NC(=O)[C@@H](NC(=O)[C@H](CC(=O)O)NC(C)=O)[C@@H](C)CC)C(=O)N[C@@H](CC(N)=O)C(=O)N[C@@H](C)C(=O)N[C@@H](CO)C(=O)N[C@H](C(=O)N[C@H](C(=O)N[C@@H](CC(N)=O)C(=O)N[C@H](C(=O)N[C@@H](CCC(N)=O)C(=O)N[C@@H](CCCCN)C(=O)N[C@@H](CCC(=O)O)C(=O)N[C@H](C(=O)N[C@@H](CC(=O)O)C(=O)N[C@@H](CCCNC(=N)N)C(=O)N[C@@H](CC(C)C)C(=O)N[C@@]1(C)CCCC=CCCC[C@@](C)(C(=O)N[C@@H](CC(N)=O)C(=O)N[C@@H](CC(C)C)C(=O)N[C@@H](CC(N)=O)C(=O)N[C@@H](CCC(=O)O)C(=O)N[C@@H](CO)C(=O)N[C@@H](CC(C)C)C(=O)N[C@H](C(=O)N[C@@H](CC(=O)O)C(=O)N[C@@H](CC(C)C)C(=O)N[C@@H](CCC(N)=O)C(=O)N[C@@H](CCC(=O)O)C(=O)N[C@@H](CC(C)C)C(N)=O)[C@@H](C)CC)NC(=O)[C@H](C)NC(=O)[C@H](C(C)C)NC(=O)[C@H](CCC(=O)O)NC1=O)[C@@H](C)CC)[C@@H](C)CC)C(C)C)C(C)C`: the concentration for a half-maximal effect (EC50) was determined as 5 µM.
